Here are results for six compounds from ChEMBL document CHEMBL4118087, “Inhibitors of CD73 May Provide a Treatment for Cancer and Autoimmune Diseases” (ACS Med Chem Lett, 2017).

For the experiment, the target named is 5'-nucleotidase (Homo sapiens, UniProt P21589, T376A). Briefly: Inhibition of human flag-tagged CD73 Thr376Ala mutant (1 to 552 residues) assessed as reduction in conversion of AMP to adenosine incubated for 10 mins followed by AMP addition measured after 30 mins by RapidFire mass spectrometric analysis.
Sequence of 5'-nucleotidase (P21589 27-549 T376A limits assumed): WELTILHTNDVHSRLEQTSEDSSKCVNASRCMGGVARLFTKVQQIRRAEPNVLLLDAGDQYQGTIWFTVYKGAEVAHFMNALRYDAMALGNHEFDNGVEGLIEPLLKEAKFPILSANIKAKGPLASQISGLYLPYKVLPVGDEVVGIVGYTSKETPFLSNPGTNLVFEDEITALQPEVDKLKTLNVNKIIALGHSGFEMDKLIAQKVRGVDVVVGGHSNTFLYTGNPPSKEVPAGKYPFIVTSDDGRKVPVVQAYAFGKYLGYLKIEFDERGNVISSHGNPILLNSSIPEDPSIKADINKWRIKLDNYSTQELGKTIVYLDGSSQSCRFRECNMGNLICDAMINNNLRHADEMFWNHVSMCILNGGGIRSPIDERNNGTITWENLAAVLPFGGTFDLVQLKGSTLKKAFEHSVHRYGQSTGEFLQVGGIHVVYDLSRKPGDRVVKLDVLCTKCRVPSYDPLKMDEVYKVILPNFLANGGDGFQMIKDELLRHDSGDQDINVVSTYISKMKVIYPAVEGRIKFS

Consider `Cc1ccc(NC2=Nc3c(O)cc(Cl)cc3S(=O)(=O)N2)cc1`, for which the concentration for half-maximal inhibition (IC50) (as a rule, the concentration at which inhibition is half-maximal) is 1 µM.
As for `O=S1(=O)NC(Nc2cccc(O)c2)=Nc2c(O)cc(F)cc21`, the figure is 0.1 µM.
The result for `O=S1(=O)NC(Nc2cccc3[nH]ccc23)=Nc2c(O)cc(Cl)cc21` reads not above 0.316 µM; that for `O=S1(=O)NC(Nc2cccc3[nH]ncc23)=Nc2c1cc(Cl)c(F)c2O`, 0.0158 µM; that for `O=S1(=O)N=C(Nc2cc(F)c3[nH]ccc3c2)Nc2c(O)cc(Cl)c(Br)c21`, 0.0631 µM.
For the compound `CN(C)C(=O)Cc1cccc(NC2=Nc3c(O)cc(Cl)cc3S(=O)(=O)N2)c1`, the half-maximal inhibitory concentration (IC50) was 3.16 µM.
